In PubChem BioAssay (NCI):
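Test compounds were applied to cells in 96-well plates for 48 hours at 5 doses. The concentration for 50% growth inhibition is given as GI50. At the TGI there is no net growth.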

What was measured:
Assay in all cases: NCI-60 cell line screen, 48 h; in the data active = GI50 below about 0.43 µM; inactive = the rest
NCI-H23 lung = system: NCI-H23 lung
SK-MEL-2 melanoma = system: SK-MEL-2 melanoma
OVCAR-5 ovarian = system: OVCAR-5 ovarian
SF-295 CNS = system: SF-295 CNS
CCRF-CEM leukemia = system: CCRF-CEM leukemia
MALME-3M melanoma = system: MALME-3M melanoma
A498 renal = system: A498 renal
OVCAR-8 ovarian = system: OVCAR-8 ovarian
SK-MEL-28 melanoma = system: SK-MEL-28 melanoma
786-0 renal = system: 786-0 renal
ACHN renal = system: ACHN renal
MCF7 breast = system: MCF7 breast
SF-268 CNS = system: SF-268 CNS
UACC-62 melanoma = system: UACC-62 melanoma
RPMI-8226 leukemia = system: RPMI-8226 leukemia
HOP-92 NSCLC = system: HOP-92 NSCLC
HT29 colon = system: HT29 colon
NCI/ADR-RES ovarian = system: NCI/ADR-RES ovarian
IGROV1 ovarian = system: IGROV1 ovarian
A549 NSCLC = system: A549 NSCLC
SN12C renal = system: SN12C renal
K-562 leukemia = system: K-562 leukemia
CAKI-1 renal = system: CAKI-1 renal
EKVX NSCLC = system: EKVX NSCLC
HCT-15 colon = system: HCT-15 colon
NCI-H226 lung = system: NCI-H226 lung
LOX IMVI melanoma = system: LOX IMVI melanoma
NCI-H522 lung = system: NCI-H522 lung
HOP-62 NSCLC = system: HOP-62 NSCLC
U251 CNS = system: U251 CNS
DU-145 prostate = system: DU-145 prostate
RXF 393 renal = system: RXF 393 renal
SW-620 colon = system: SW-620 colon
MOLT-4 leukemia = system: MOLT-4 leukemia
UACC-257 melanoma = system: UACC-257 melanoma
T-47D breast = system: T-47D breast
SNB-75 CNS = system: SNB-75 CNS
SNB-19 CNS = system: SNB-19 CNS
OVCAR-4 ovarian = system: OVCAR-4 ovarian
HCT-116 colon = system: HCT-116 colon
BT-549 breast = system: BT-549 breast
HL-60(TB) leukemia = system: HL-60(TB) leukemia
SK-MEL-5 melanoma = system: SK-MEL-5 melanoma
SF-539 CNS = system: SF-539 CNS
TK-10 renal = system: TK-10 renal
HCC-2998 colon = system: HCC-2998 colon
MDA-MB-231 breast = system: MDA-MB-231 breast
OVCAR-3 ovarian = system: OVCAR-3 ovarian
KM12 colon = system: KM12 colon
UO-31 renal = system: UO-31 renal
PC-3 prostate = system: PC-3 prostate
COLO 205 colon = system: COLO 205 colon
HS 578T breast = system: HS 578T breast
SK-OV-3 ovarian = system: SK-OV-3 ovarian
M14 melanoma = system: M14 melanoma
NCI-H460 lung = system: NCI-H460 lung
MDA-MB-435 = system: MDA-MB-435

NC(=O)[C@@H](CCC(F)(F)F)N(Cc1ccc(-c2ncon2)cc1F)S(=O)(=O)c1ccc(Cl)cc1
> 73.2 µM: TGI (ACHN renal)
> 60.5 µM: TGI (OVCAR-3 ovarian)
> 85.6 µM: TGI (UACC-257 melanoma)
> 100 µM: TGI (NCI-H23 lung) | TGI (OVCAR-5 ovarian) | TGI (SF-295 CNS) | TGI (CCRF-CEM leukemia) | TGI (OVCAR-8 ovarian) | TGI (SK-MEL-28 melanoma) | TGI (MCF7 breast) | TGI (SF-268 CNS) | TGI (NCI/ADR-RES ovarian) | TGI (IGROV1 ovarian) | TGI (A549 NSCLC) | TGI (K-562 leukemia) | TGI (EKVX NSCLC) | TGI (HCT-15 colon) | TGI (NCI-H226 lung) | TGI (LOX IMVI melanoma) | TGI (NCI-H522 lung) | TGI (U251 CNS) | TGI (DU-145 prostate) | TGI (RXF 393 renal) | TGI (SW-620 colon) | TGI (SNB-75 CNS) | TGI (SNB-19 CNS) | TGI (OVCAR-4 ovarian) | TGI (HCC-2998 colon) | TGI (MDA-MB-231 breast) | TGI (UO-31 renal) | TGI (PC-3 prostate) | TGI (HS 578T breast) | TGI (NCI-H460 lung)
> 64.5 µM: TGI (HOP-62 NSCLC)
> 73.7 µM: TGI (MALME-3M melanoma)
54.7 µM: TGI (MOLT-4 leukemia)
> 58.7 µM: TGI (HT29 colon)
> 89.9 µM: TGI (SK-OV-3 ovarian)
> 78.7 µM: TGI (T-47D breast)
> 61.7 µM: TGI (HCT-116 colon)
> 63.9 µM: TGI (SK-MEL-2 melanoma)
> 57.2 µM: TGI (COLO 205 colon)
43.3 µM: TGI (HOP-92 NSCLC)
> 62.8 µM: TGI (CAKI-1 renal)
> 62.7 µM: TGI (A498 renal)
> 57.8 µM: TGI (SN12C renal)
inactive: GI50 (NCI-H23 lung) 36.1 µM | GI50 (SK-MEL-2 melanoma) 29.7 µM | GI50 (OVCAR-5 ovarian) > 49.5 µM | GI50 (SF-295 CNS) 35.3 µM | GI50 (CCRF-CEM leukemia) 20.8 µM | GI50 (MALME-3M melanoma) 32 µM | GI50 (A498 renal) 8.86 µM | GI50 (OVCAR-8 ovarian) 46.8 µM | GI50 (SK-MEL-28 melanoma) 45.5 µM | GI50 (786-0 renal) > 40.5 µM | GI50 (ACHN renal) 26.7 µM | GI50 (MCF7 breast) 28.4 µM | GI50 (SF-268 CNS) 39.6 µM | GI50 (UACC-62 melanoma) 18.2 µM | GI50 (RPMI-8226 leukemia) 14.5 µM | GI50 (HOP-92 NSCLC) 8.88 µM | GI50 (HT29 colon) 21.3 µM | GI50 (NCI/ADR-RES ovarian) 47.5 µM | GI50 (IGROV1 ovarian) 51.7 µM | GI50 (A549 NSCLC) 36.7 µM | GI50 (SN12C renal) 25.8 µM | GI50 (K-562 leukemia) 34.9 µM | GI50 (CAKI-1 renal) 13.7 µM | GI50 (EKVX NSCLC) > 90.3 µM | GI50 (HCT-15 colon) 69.6 µM | GI50 (NCI-H226 lung) > 54.1 µM | GI50 (LOX IMVI melanoma) 29.9 µM | GI50 (NCI-H522 lung) 48.8 µM | GI50 (HOP-62 NSCLC) > 43.2 µM | GI50 (U251 CNS) > 49 µM | GI50 (DU-145 prostate) > 67.1 µM | GI50 (RXF 393 renal) 20.8 µM | GI50 (SW-620 colon) > 59.9 µM | GI50 (MOLT-4 leukemia) 16.3 µM | GI50 (UACC-257 melanoma) 27.3 µM | GI50 (T-47D breast) 21.3 µM | GI50 (SNB-75 CNS) 53.3 µM | GI50 (SNB-19 CNS) > 50.6 µM | GI50 (OVCAR-4 ovarian) 44.5 µM | GI50 (HCT-116 colon) 35.3 µM | GI50 (BT-549 breast) 32.6 µM | GI50 (HL-60(TB) leukemia) 23.7 µM | GI50 (SK-MEL-5 melanoma) 15.8 µM | GI50 (SF-539 CNS) 31 µM | GI50 (TK-10 renal) 21 µM | GI50 (HCC-2998 colon) > 68.9 µM | GI50 (MDA-MB-231 breast) 36.3 µM | GI50 (OVCAR-3 ovarian) 23.6 µM | GI50 (KM12 colon) 23.1 µM | GI50 (UO-31 renal) 13.1 µM | GI50 (PC-3 prostate) 12.6 µM | GI50 (COLO 205 colon) 27.4 µM | GI50 (HS 578T breast) 28.8 µM | GI50 (SK-OV-3 ovarian) > 50.7 µM | GI50 (M14 melanoma) 22.2 µM | GI50 (NCI-H460 lung) 30.6 µM | GI50 (MDA-MB-435) 21.3 µM
> 59.1 µM: TGI (MDA-MB-435)
65.6 µM: TGI (HL-60(TB) leukemia)
> 52.6 µM: TGI (M14 melanoma)
> 50.7 µM: TGI (UACC-62 melanoma)
> 63.5 µM: TGI (TK-10 renal)
33.2 µM: TGI (SK-MEL-5 melanoma)
64.4 µM: TGI (RPMI-8226 leukemia)
> 62.6 µM: TGI (SF-539 CNS)
> 59 µM: TGI (786-0 renal) | TGI (BT-549 breast)
> 56.3 µM: TGI (KM12 colon)
